Data: US7888332B2, “Hydrazide-containing CFTR inhibitor compounds and uses thereof” (The Regents of the University of California, priority 2004, dated 2011)
pKi: −log10 of the molar value.

Tests used:
[1] = molecular target: T1, CFTR (cAMP-stimulated short-circuit current) in human airway cells (Homo sapiens, UniProt P13569); experiment: Short-circuit current in human airway (primary human bronchial) cells; type: cell-based; settings: primary human bronchial cell cultures
T1 construct: endogenous in cells; host or cells: primary human bronchial epithelial cell cultures
Description: The efficacy of GlyH-101 in inhibiting cAMP/cholera toxin-induced intestinal fluid secretion was also evaluated. Short-circuit current experiments were done in different cell types and in intact mouse ileum under non-permeabilized conditions and in the absence of a Cl^− gradient. In each case CFTR was activated by CPT-cAMP after ENaC inhibition by amiloride. […] Inhibition was ˜100% at higher GlyH-101 concentrations. Cholera toxin-induced intestinal fluid secretion was measured in an in vivo closed-loop model in which loops for each mouse were injected with saline (control), cholera toxin (1 μg), or cholera toxin (1 μg)+GlyH-101 (0.25 μg). GlyH-101 was added to the lumen (rather than systemically) based on initial studies showing poor intestinal absorption and little effect of systemically administered compound. Compared to the saline control, the cholera toxin-induced increase in fluid secretion over 4 hours, quantified from loop weight-to-length ratio, was 80% reduced by GlyH-101.

CFTR [2] = molecular target: T2, CFTR (Homo sapiens, UniProt P13569); experiment: Cell-based YFP fluorescence assay of iodide influx after CFTR activation (screening); parameters: expressed in transfected cells; host or cells: Fisher Rat Thyroid (FRT) cells, stably transfected
Description: Screening was performed using an integrated system (Beckman) consisting of a 3-meter robotic arm, CO2 incubator, plate washer, liquid handling work station, barcode reader, delidding station, plate sealer and two fluorescence plate readers (Optima, BMG Lab Technologies), each equipped with two syringe pumps and HQ500/20X (500±10 nm) excitation and HQ535/30M (535±15 nm) emission filters (Chroma).
One hundred thousand small molecules (most 350-550 daltons) were selected for screening from commercial sources (ChemBridge and ChemDiv, both of San Diego, Calif.) using algorithms designed to maximize chemical diversity and drug-like properties. The compounds were obtained as a dried powder and solutions were made in DMSO just before testing, stored frozen as 2.5 mM stock solutions for further use.
For screening, cells in 96-well plates were washed three times and then CFTR halide conductance was activated by incubation for 15 minutes with an activating cocktail containing 10 μM forskolin, 20 μM apigenin and 100 μM isobutylmethyl-xanthine (IBMX). Test compounds (final 25 μM) were added 5 minutes prior to assay of iodide influx in which cells were exposed to a 100 mM inwardly-directed iodide gradient. YFP fluorescence was recorded for 2 seconds prior to and 12 seconds after creation of the iodide gradient. Initial rates of iodide influx were computed from the time course of decreasing fluorescence after the iodide gradient (Yang et al., J. Biol. Chem., 35079-35085, 2003).
A collection of 100,000 small, drug-like compounds was screened to identify new CFTR inhibitors. As diagrammed in FIG. 1A, compounds were screened at 25 μM in a cell-based assay of iodide influx after CFTR activation by an agonist mixture containing forskolin, IBMX and apigenin. Initial rates of iodide influx were computed from the kinetics of fluorescence decrease following chloride replacement by iodide. Four compounds (FIG. 1B) reducing iodide influx by greater than 50% were identified, which were not related structurally to known CFTR activators or inhibitors.

CFTR [3] = molecular target: T2, CFTR; experiment: Cell-attached patch-clamp, CFTR single channel activity in FRT cells; type: cell-based; parameters: expressed in transfected cells; host or cells: Fisher Rat Thyroid (FRT) cells, stably transfected; settings: for Mean channel open time: +60 mV
Description: Patch-clamp experiments were carried out at room temperature on FRT cells stably expressing wildtype CFTR. Cell-attached and whole-cell configurations were used (Hamill et al., Pflugers Arch. 391:85-100, 1981). The cell membrane was clamped at specified voltages using an EPC-7 patch-clamp amplifier (List Medical). Data were filtered at 500 Hz and digitized at 2000 Hz. For whole-cell experiments the pipette solution contained (in mM): 120 CsCl, 10 TEA-Cl, 0.5 EGTA, 1 MgCl2, 40 mannitol, 10 Cs-HEPES and 3 mM MgATP (pH 7.3). For cell attached experiments EGTA was replaced with 1 mM CaCl2. The bath solution for whole-cell experiments contained (in mM): 150 NaCl, 1 CaCl2, 1 MgCl2, 10 glucose, 10 mannitol, 10 Na-TES (pH 7.4). In cell-attached experiments the bath solution contained (in mM): 130 KCl, 2 NaCl, 2 CaCl2, 2 MgCl2, 10 glucose, 20 mannitol, and 10 K-Hepes (pH 7.3). Inhibitors were applied by extracellular perfusion. CFTR channel activity in cell-attached patches was analyzed as described previously (Taddei et al., FEBS Lett. 558:52-56, 2004).
Cell-attached patch-clamp experiments were carried out to investigate the mechanism of GlyH-101 block of CFTR Cl^− current at the single-channel level. […] In the absence of the inhibitor, mean channel open time was 264±11 ms (SE, n=10). Mean channel open times at +60 mV at 0.4, 1, and 5 μM GlyH-101 were reduced to 181±29, 38±5, and 13±2 ms, respectively (n=5; p<0.01 for all concentrations vs. control).

[4] = after GlyH-101 addition (10 μM)

T2 sequence (P13569 whole entry): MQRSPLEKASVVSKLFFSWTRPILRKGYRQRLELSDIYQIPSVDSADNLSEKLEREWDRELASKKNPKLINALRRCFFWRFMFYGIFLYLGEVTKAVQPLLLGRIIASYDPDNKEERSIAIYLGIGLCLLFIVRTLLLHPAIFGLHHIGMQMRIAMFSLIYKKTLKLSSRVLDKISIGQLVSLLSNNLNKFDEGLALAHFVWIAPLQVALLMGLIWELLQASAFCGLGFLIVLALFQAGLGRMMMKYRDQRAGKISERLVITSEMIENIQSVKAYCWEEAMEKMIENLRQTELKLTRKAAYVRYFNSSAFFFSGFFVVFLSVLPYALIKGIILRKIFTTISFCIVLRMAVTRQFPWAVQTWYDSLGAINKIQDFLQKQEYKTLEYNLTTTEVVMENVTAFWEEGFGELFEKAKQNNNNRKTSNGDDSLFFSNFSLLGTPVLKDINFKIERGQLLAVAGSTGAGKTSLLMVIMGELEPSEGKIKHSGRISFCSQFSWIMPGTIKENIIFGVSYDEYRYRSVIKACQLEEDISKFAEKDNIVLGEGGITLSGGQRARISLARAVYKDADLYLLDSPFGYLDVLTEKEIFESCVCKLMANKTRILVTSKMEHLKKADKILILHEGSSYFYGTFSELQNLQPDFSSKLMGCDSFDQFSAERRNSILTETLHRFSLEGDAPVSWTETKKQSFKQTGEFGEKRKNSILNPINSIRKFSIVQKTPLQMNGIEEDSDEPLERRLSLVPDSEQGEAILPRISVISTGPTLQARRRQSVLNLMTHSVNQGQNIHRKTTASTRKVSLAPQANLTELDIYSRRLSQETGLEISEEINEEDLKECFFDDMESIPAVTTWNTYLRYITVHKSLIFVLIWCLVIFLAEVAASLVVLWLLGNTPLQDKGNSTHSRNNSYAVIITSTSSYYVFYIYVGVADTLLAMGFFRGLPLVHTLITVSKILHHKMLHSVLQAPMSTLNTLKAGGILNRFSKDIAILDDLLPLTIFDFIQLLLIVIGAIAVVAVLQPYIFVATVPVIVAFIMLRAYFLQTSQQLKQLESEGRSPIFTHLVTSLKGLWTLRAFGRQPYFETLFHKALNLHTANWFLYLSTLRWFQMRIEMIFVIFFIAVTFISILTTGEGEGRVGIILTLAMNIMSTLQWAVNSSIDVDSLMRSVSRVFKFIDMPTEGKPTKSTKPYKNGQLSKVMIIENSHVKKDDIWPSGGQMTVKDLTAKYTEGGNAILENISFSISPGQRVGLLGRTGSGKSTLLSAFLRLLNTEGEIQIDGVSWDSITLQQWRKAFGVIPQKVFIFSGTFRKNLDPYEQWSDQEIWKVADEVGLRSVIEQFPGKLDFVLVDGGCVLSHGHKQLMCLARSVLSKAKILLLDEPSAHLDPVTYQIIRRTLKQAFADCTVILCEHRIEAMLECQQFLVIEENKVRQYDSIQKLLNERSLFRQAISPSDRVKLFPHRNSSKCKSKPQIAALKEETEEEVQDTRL
T1 sequence (P13569 whole entry): as above

For `O=C(CNc1ccc2ccccc2c1)NN=Cc1cc(Br)c(O)c(Br)c1O` [GlyH-101, N-2-napthalenyl-[(3,5-dibromo-2,4-dihydroxyphenyl)methylene]glycine hydrazide], the “Inhibition at higher concentrations” value [1] was ~100%, the pKi ([1]; CPT-cAMP after amiloride, read-out: Ki for inhibition of cAMP-stimulated short-circuit current) was ~5.30 and the “CFTR inhibition after activation by different types of agonists” value (CFTR [2]; 50 μM GlyH-101, agonists 50 μM incl. CFTRact-01, 08, 10) was “effective CFTR inhibition”. For the same compound, the “time of further inhibition” value (CFTR [2]; [4]) was ~1 min, the “time within which 50% of the inhibition occurred” value (CFTR [2]; [4]) was ≤ 1 s and the “reversal of inhibition after washout” value (CFTR [2]; washout) was “complete reversal”. The “reversal of inhibition over 5 minutes after washout” value (CFTR [2]; washout, 5 minutes) was > 75%, the “change in single channel conductance” value (CFTR [3]; 0.4-5 μM) was “without a change” and the “Mean channel open time” value (CFTR [3]; 0.4 μM GlyH-101) was 181 ± 29 ms. The “Mean channel open time” value (CFTR [3]; 1 μM GlyH-101) was 38 ± 5 ms and the “Mean channel open time” value (CFTR [3]; 5 μM GlyH-101) was 13 ± 2 ms.
